Entries after “also recorded” stand apart in the source; their conditions may differ. One block for each molecule: values may come before it. Ends that are not written are not given here.
How the values were obtained:
[1] = tested on: monoclonal antibody MV-002; experiment: In vitro binding assay (ELISA), BSA-coupled peptides, parental antibody MV-002; set-up: species or system C57/B16 mice; settings: Table 1 (MV-002); peptide-BSA on plate, compared to original epitope
Procedure: Peptides derived from Phage Display as well as variants thereof were coupled to BSA and bound to ELISA plates (1 μM; as indicated in the respective figures) and subsequently incubated with the monoclonal antibody that was used for the screening procedure to analyse binding capacity of identified peptides.
Legend to Table 1: the binding capacity is coded by the following binding code: 1:X describes the dilution factor of the parental AB. Ac- . . . indicates acetylated AA.

[2] = tested on: monoclonal antibody (DAEFRH-peptide-specific); experiment: Inhibition assay (ELISA): mimotope peptides compete with plate-bound original epitope DAEFRH for recognition by the monoclonal antibody; format: binding, Mice; set-up: key to inhibition (s/m/—): s: strong inhibition; m: moderate inhibition; —: -: no inhibition; settings: for Inhibitory capacity of mimotopes: summary Tables 1 and 2 (Examples 2, 3); for inhibition of binding of the monoclonal antibody to the original epitope: competition ELISA, plate-bound DAEFRH-C-BSA, text to FIGS. 2-9; for inhibition (s/m/—): peptide lists of Example 4
Excerpt: Mice are vaccinated with the 6mer peptide DAEFRH (natural N-terminal Aβ42 sequence) linked to the protein bovine serum albumin BSA (to make use of the hapten-carrier-effect), emulsified in CFA (first injection) and IFA (booster injections). DAEFRH-peptide-specific, antibody-producing hybridomas are detected by ELISA (DAEFRH-peptide-coated ELISA plates).
FIGS. 2 and 3 describe the results of inhibition assays performed with mimotope peptides included in and obtained from the 5 libraries (as described in WO 2004/062556). The mimotope peptides compete with the original epitope for recognition by the monoclonal antibody. Original epitope and mimotope peptides contain an additional C at the C-terminus for coupling to a protein carrier (if desired).
(§1) After blocking with PBS/BSA 1% (200 μl/well, 12 h, 4° C.), the plates are washed 3× times with PBS/Tween. Then, biotinylated monoclonal antibody (1:2000, 50 μl/well) and peptides (50 μl/well) at 50, 5, 0.5, 0.05, 0.005, and 0.0005 μg/ml are added for 20 min. at 37° C. The plates are washed 3× times with PBS/Tween and are incubated with horseradish peroxidase (HRP)-labeled streptavidin (100 μl/well, 30 min, RT). The plates are washed 5× times with PBS/Tween and are incubated with ABTS+H2O2(0.1% w/v, 10 to 45 min) and the reaction is stopped with citric acid followed by photometric evaluation (wavelength 405 nm).
as §1, with “different concentrations” for “50, 5, 0.5, 0.05, 0.005, and 0.0005 μg/ml”, “ABTS+H2O2 (0.1%” for “ABTS+H2O2(0.1%”
as §1, with “different concentrations” for “50, 5, 0.5, 0.05, 0.005, and 0.0005 μg/ml”

[3] = target: monoclonal antibody MV-001; experiment: ELISA on peptide-BSA; code 3 = strong binding, OD halfmax 1:>20000
[4] = target: monoclonal antibody MV-001; experiment: ELISA on peptide-BSA; code 2 = medium binding, OD halfmax 1:4000-20000

Molecule: GQLKFPFC [p4690]
Binding Capacity [1]: 3 (strong binding :>320000)

Molecule: GTLIFHHC [p4695]
Binding Capacity [1]: 2 (medium binding :40000-320000)

Molecule: GQIWFISC [p4666]
Binding Capacity [1]: 1 (weak binding :<40000)

Molecule: QLPLFVLC [p4700]
Binding Capacity [1]: 1 (weak binding :<40000)

Molecule: GELFFPKC [p4685]
Binding Capacity [1]: 3 (strong binding :>320000)

Molecule: GSLFFWPC [p4688]
Binding Capacity [1]: 2 (medium binding :40000-320000)

Molecule: GEIRFALC [p4678]
Binding Capacity [1]: 3 (strong binding :>320000)

Molecule: GEMWFALC [p4671]
Binding Capacity [1]: 3 (strong binding :>320000)

Molecule: GQILFPVC [p4684]
Binding Capacity [1]: 3 (strong binding :>320000)

Molecule: GQIIFQSC [p4668]
Binding Capacity [1]: 2 (medium binding :40000-320000)

Molecule: KLPLFVMC [p4691]
Binding Capacity [1]: 1 (weak binding :<40000)

Molecule: GMIVFPHC [p4679]
Binding Capacity [1]: 3 (strong binding :>320000)

Molecule: GELQFPPC [p4672]
Binding Capacity [1]: 3 (strong binding :>320000)

Molecule: HMRMYFEC [p4687]
Binding Capacity [1]: 3 (strong binding :>320000)

Molecule: GQIKFAQC [p4694]
Binding Capacity [1]: 3 (strong binding :>320000)

Molecule: GTIFFRDC [p4692]
Binding Capacity [1]: 1 (weak binding :<40000)

Molecule: GELYFRAC [p4677]
Binding Capacity [1]: 3 (strong binding :>320000)

Molecule: GQIRFDHC [p4669]
Binding Capacity [1]: 3 (strong binding :>320000)

Molecule: GEMQFFIC [p4676]
Binding Capacity [1]: 3 (strong binding :>320000)

Molecule: N=C(N)NCCC[C@H](NC(=O)[C@H](Cc1ccccc1)NC(=O)[C@H](CCC(=O)O)NC(=O)[C@H](Cc1ccccc1)NC(=O)[C@@H](N)CO)C(=O)NCC(=O)N[C@@H](CS)C(=O)O [Peptide 3009, SFEFRG]
Inhibitory capacity of mimotopes [2]: weak

Molecule: GQIQFPLC [p4697]
Binding Capacity [1]: 3 (strong binding :>320000)

Molecule: AIPLFVMC [p4682]
Binding Capacity [1]: 1 (weak binding :<40000)

Molecule: GQIMFPRC [p4686]
Binding Capacity [1]: 3 (strong binding :>320000)

Molecule: VPTSALA [Peptide 4037]
inhibition of binding of the monoclonal antibody to the original epitope [2]: not inhibitory
inhibition (s/m/—) [2]: —

Molecule: SWFRNP [Peptide 4019]
inhibition of binding of the monoclonal antibody to the original epitope [2]: not inhibitory
inhibition (s/m/—) [2]: —

Molecule: YREFFI (YREFFIC) [Peptide 3003]
inhibition of binding of the monoclonal antibody to the original epitope [2]: not able to inhibit
Inhibitory capacity of mimotopes [2]: none

Molecule: SAEFRTQ [Peptide 4015]
inhibition of binding of the monoclonal antibody to the original epitope [2]: strongly block epitope recognition
inhibition (s/m/—) [2]: s

Molecule: DNEFRSP [Peptide 4012]
inhibition of binding of the monoclonal antibody to the original epitope [2]: moderately inhibit
inhibition (s/m/—) [2]: s

Molecule: YREFRI (YREFRIC) [Peptide 3004]
inhibition of binding of the monoclonal antibody to the original epitope [2]: block epitope recognition; also recorded: only inhibitory at a high concentration (50 μg/ml)
Inhibitory capacity of mimotopes [2]: weak

Molecule: GDLKFPLC [p4683]
Binding Capacity [1]: 3 (strong binding :>320000)

Molecule: YSMRHDAC [p4705]
OD halfmax 1:X (dilution factor of the parental antibody at half-maximal OD) (dilutionfactor(1:x)) [4]: 4000 to 20000

Molecule: VELRHSRC [p4704]
OD halfmax 1:X (dilution factor of the parental antibody at half-maximal OD) (dilutionfactor(1:x)) [4]: 4000 to 20000

Molecule: DTYFPRSC [p4703]
OD halfmax 1:X (dilution factor of the parental antibody at half-maximal OD) (dilutionfactor(1:x)) [4]: 4000 to 20000

Molecule: NELRHSTC [p4701]
OD halfmax 1:X (dilution factor of the parental antibody at half-maximal OD) (dilutionfactor(1:x)) [3]: > 20000

Molecule: AANYFPRC [p4706]
OD halfmax 1:X (dilution factor of the parental antibody at half-maximal OD) (dilutionfactor(1:x)) [4]: 4000 to 20000

Molecule: GEMRHQPC [p4702]
OD halfmax 1:X (dilution factor of the parental antibody at half-maximal OD) (dilutionfactor(1:x)) [3]: > 20000

More lines, now with the values ahead:

Binding Capacity [1]: 2 (medium binding :40000-320000)
Molecule: GEIRFELC [p4796]

Binding Capacity [1]: 1 (weak binding :<40000)
Molecule: SGEIYFERC [p4805]

Binding Capacity [1]: 1 (weak binding :<40000)
Molecule: AGEIYFERC [p4806]

Binding Capacity [1]: 1 (weak binding :<40000)
Molecule: CGEIYFER [p4807]

Binding Capacity [1]: 2 (medium binding :40000-320000)
Molecule: Ac-GEIYFERC [p4804]

Binding Capacity [1]: 2 (medium binding :40000-320000)
Molecule: GELFFEKC [p4795]

OD halfmax 1:X (dilution factor of the parental antibody at half-maximal OD) (dilutionfactor(1:x)) [3]: > 20000
Molecule: EFLRHTLC [p4722]

OD halfmax 1:X (dilution factor of the parental antibody at half-maximal OD) (dilutionfactor(1:x)) [3]: > 20000
Molecule: NSSELRHC [p4752]

OD halfmax 1:X (dilution factor of the parental antibody at half-maximal OD) (dilutionfactor(1:x)) [3]: > 20000
Molecule: APIQFRHC [p4750]

OD halfmax 1:X (dilution factor of the parental antibody at half-maximal OD) (dilutionfactor(1:x)) [3]: > 20000
Molecule: LHIPFRHC [p4726]

OD halfmax 1:X (dilution factor of the parental antibody at half-maximal OD) (dilutionfactor(1:x)) [3]: > 20000
Molecule: YEFRHAQC [p4748]

OD halfmax 1:X (dilution factor of the parental antibody at half-maximal OD) (dilutionfactor(1:x)) [3]: > 20000
Molecule: ATPLFRHC [p4723]

OD halfmax 1:X (dilution factor of the parental antibody at half-maximal OD) (dilutionfactor(1:x)) [4]: 4000 to 20000
Molecule: QVMRHHAC [p4711]

OD halfmax 1:X (dilution factor of the parental antibody at half-maximal OD) (dilutionfactor(1:x)) [4]: 4000 to 20000
Molecule: APMYFPHC [p4717]

OD halfmax 1:X (dilution factor of the parental antibody at half-maximal OD) (dilutionfactor(1:x)) [3]: > 20000
Molecule: SNSEFRRC [p4743]

OD halfmax 1:X (dilution factor of the parental antibody at half-maximal OD) (dilutionfactor(1:x)) [3]: > 20000
Molecule: SELRHSTC [p4744]

OD halfmax 1:X (dilution factor of the parental antibody at half-maximal OD) (dilutionfactor(1:x)) [3]: > 20000
Molecule: SQSYFKHC [p4755]

OD halfmax 1:X (dilution factor of the parental antibody at half-maximal OD) (dilutionfactor(1:x)) [4]: 4000 to 20000
Molecule: SSSFFPRC [p4708]

OD halfmax 1:X (dilution factor of the parental antibody at half-maximal OD) (dilutionfactor(1:x)) [3]: > 20000
Molecule: SAGSFRHC [p4710]

OD halfmax 1:X (dilution factor of the parental antibody at half-maximal OD) (dilutionfactor(1:x)) [3]: > 20000
Molecule: SNFRHSVC [p4749]

OD halfmax 1:X (dilution factor of the parental antibody at half-maximal OD) (dilutionfactor(1:x)) [3]: > 20000
Molecule: SEFSHSSC [p4712]

OD halfmax 1:X (dilution factor of the parental antibody at half-maximal OD) (dilutionfactor(1:x)) [4]: 4000 to 20000
Molecule: TYFSHSLC [p4718]

OD halfmax 1:X (dilution factor of the parental antibody at half-maximal OD) (dilutionfactor(1:x)) [3]: > 20000
Molecule: THMEFRRC [p4745]

OD halfmax 1:X (dilution factor of the parental antibody at half-maximal OD) (dilutionfactor(1:x)) [3]: > 20000
Molecule: QLFKHSPC [p4747]

OD halfmax 1:X (dilution factor of the parental antibody at half-maximal OD) (dilutionfactor(1:x)) [3]: > 20000
Molecule: ELFKHHLC [p4714]

OD halfmax 1:X (dilution factor of the parental antibody at half-maximal OD) (dilutionfactor(1:x)) [4]: 4000 to 20000
Molecule: ATFRHSPC [p4716]

Reference: patent US20130287807A1, “COMPOUNDS FOR TREATING SYMPTOMS ASSOCIATED WITH PARKINSON'S DISEASE” (priority 2008, published 2013)
